In test [1] the target is T1, recombinant Tdp1 (residues 149–608) (Homo sapiens, UniProt Q9NUW8).
T1 construct: recombinant Tdp1 (residues 149–608) was obtained from GenScript; host or cells: E. coli BL21(DE3)
The test is described as follows: Intrinsic tryptophan fluorescence quenching binding assay. Particulars: 10 µM Tdp1, 20 mM Tris, 250 mM NaCl, pH 8; triplicate. As for the experimental part:
The binding of the synthesized compounds to recombinant Tdp1 was also tested (Table 1 and Table 2) by using an intrinsic tryptophan fluorescence quenching assay. […] As our compounds are aromatic in nature, there is a possibility that they may bind to both the active site as well as non-specifically to the DNA/peptide binding pockets. Nonetheless, our results confirmed that the compounds were indeed binders of Tdp1, thus complementing our inhibition data.
pET-28a(+) plasmid encoding recombinant Tdp1 (residues 149–608) was obtained from GenScript. E. coli BL21(DE3) was used for recombinant protein production. Protein production was induced with 1 mM IPTG at 28 °C with overnight incubation. Tdp1 was purified using affinity and size exclusion chromatography. Fluorescence was measured using a PerkinElmer EnSpire Multimode Reader. Tdp1 concentration was 10 μM with varying compound concentrations. The buffer was 20 mM Tris and 250 mM NaCl (pH 8). The excitation wavelength was 280 nm and intrinsic fluorescence was measured at 350 nm. Control experiments with Tdp1 or the compound on its own were also conducted. Background fluorescence arising from the compounds was subtracted from the final spectrum. The total volume per well was 30 μL. The dissociation constant (KD) was calculated using Equation (1), which takes non-specific binding into account. y = Bmaxx/(KD + x) + Nsx(1) where y denotes the changes in fluorescence intensity; x denotes the concentration of the compounds; Bmax denotes the maximum changes in fluorescence intensity; and Ns is a scaling factor for non-specific binding. Experiments were conducted in triplicate.

The target of test [2] is T2, Tdp1 (Homo sapiens, UniProt Q9NUW8).
T2 construct: made in house; host or cells: Escherichia coli
The test can be described thus: Real-time detection of Tdp1 activity (5'-FAM/3'-BHQ1 oligonucleotide biosensor). The format is biochemical. The note with it: 1.5 nM Tdp1, 50 nM oligonucleotide substrate, 26 °C. An excerpt: We first studied the inhibition potency of our compounds to Tdp1 by using a real-time oligonucleotide biosensor assay that we have previously developed. The assay was based on the ability of Tdp1 to remove the fluorescence quencher from the 3’-end of DNA. The substrate is a 16-mer single-stranded oligonucleotide containing both a 5’-FAM fluorophore and a 3’-BHQ1 quencher.
A fluorophore quencher-coupled DNA-biosensor for real-time measurement of Tdp1 cleavage activity was recently designed in our laboratory. The biosensor is a 16-mer single-stranded oligonucleotide containing both a 5’-FAM fluorophore donor and a quenching 3’-BHQ1 moiety.
Recombinant protein Tdp1 was expressed in EsCherichia coli (pET 16B plasmid containing Tdp1 cDNA provided by Dr. K.W. Caldecott, University of Sussex, United Kingdom) and isolated as described. The reaction mixture in a final volume 200 μL contained Tdp1 reaction buffer (50 mM Tris-HCl, 50 mM NaCl, 7 mM β-mercaptoethanol), 50 nM oligonucleotide substrate, and varied concentrations of potential inhibitor. Purified Tdp1 was added in a final concentration of 1.5 nM.
The reaction mixtures were incubated at a constant temperature of 26 °C in a POLARstar OPTIMA fluorimeter, BMG LABTECH, GmbH, to measure fluorescence intensity every minute (Ex485/Em520 nm). Tdp1 inhibition was calculated by comparing the rate of increase in fluorescence of the biosensor in the presence of the compound to that of DMSO (1.5%) control wells. The measurements were carried out in at least two independent experiments. IC50 values were determined using a six-point concentration response curve. The data were imported into the MARS Data Analysis 2.0 program (BMG LABTECH) and the slope during the linear phase (data from 0 to 7 min) was calculated.

T1 sequence (Q9NUW8 149-608): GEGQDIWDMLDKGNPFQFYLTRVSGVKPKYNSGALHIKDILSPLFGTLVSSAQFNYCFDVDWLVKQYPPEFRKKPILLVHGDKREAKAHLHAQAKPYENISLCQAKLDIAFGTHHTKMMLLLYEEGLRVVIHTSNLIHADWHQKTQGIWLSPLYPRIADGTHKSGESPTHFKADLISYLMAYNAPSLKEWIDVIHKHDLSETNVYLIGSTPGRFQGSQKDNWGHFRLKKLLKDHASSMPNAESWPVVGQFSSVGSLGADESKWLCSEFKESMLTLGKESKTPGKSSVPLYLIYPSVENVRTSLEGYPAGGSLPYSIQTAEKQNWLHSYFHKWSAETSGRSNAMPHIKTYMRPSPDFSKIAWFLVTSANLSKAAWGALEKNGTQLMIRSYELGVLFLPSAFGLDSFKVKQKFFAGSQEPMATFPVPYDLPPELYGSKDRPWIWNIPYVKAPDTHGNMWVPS
T2 sequence (Q9NUW8 whole entry): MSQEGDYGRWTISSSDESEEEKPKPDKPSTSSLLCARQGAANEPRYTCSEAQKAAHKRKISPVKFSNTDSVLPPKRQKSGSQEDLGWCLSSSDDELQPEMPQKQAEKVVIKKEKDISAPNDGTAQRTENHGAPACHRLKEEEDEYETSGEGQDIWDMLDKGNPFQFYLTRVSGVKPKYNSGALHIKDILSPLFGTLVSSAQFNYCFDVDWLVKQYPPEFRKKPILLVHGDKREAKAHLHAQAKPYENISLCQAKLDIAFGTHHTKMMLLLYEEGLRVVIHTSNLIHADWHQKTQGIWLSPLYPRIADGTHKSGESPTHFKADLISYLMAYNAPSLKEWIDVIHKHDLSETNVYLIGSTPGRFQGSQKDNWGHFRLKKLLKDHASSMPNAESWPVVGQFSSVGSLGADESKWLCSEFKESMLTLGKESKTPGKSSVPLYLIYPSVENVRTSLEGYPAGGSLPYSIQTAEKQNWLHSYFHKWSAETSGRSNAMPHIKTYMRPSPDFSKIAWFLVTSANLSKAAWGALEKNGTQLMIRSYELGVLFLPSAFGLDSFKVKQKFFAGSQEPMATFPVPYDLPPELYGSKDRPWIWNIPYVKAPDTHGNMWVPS

On to `COc1ccc(/C=N/Nc2nc(-c3c(O)c(C)c(O)c4c3OC3=CC(O)=C(C(C)=O)C(=O)[C@@]34C)cs2)cc1CSc1cc(C)ccc1C(C)(C)C` [(+)-17g, (2R)-4-Acetyl-10-{2-[(E)-2-[(3-{[(2-tert-butyl-5-methylphenyl)sulfanyl]methyl}-4-methoxyphenyl)methylidene]hydrazin-1-yl]-1,3-thiazol-4-yl}-5,11,13-trihydroxy-2,12-dimethyl-8-oxatricyclo[7.4.0.0^2,7]trideca-1(9),4,6,10,12-pentaen-3-one], for which the dissociation constant (Kd) in test [1] was 223 ± 42 µM. Also, in test [2], the IC50 stood at 0.122 ± 0.025 µM.

For the compound `CC(=O)C1=C(O)C=C2Oc3c(-c4csc(N/N=C/c5ccc(-c6cccc(Cl)c6)o5)n4)c(O)c(C)c(O)c3[C@@]2(C)C1=O` [(+)-16r, (2R)-4-Acetyl-10-{2-[(E)-2-{[5-(3-chlorophenyl)furan-2-yl]methylidene}hydrazin-1-yl]-1,3-thiazol-4-yl}-5,11,13-trihydroxy-2,12-dimethyl-8-oxatricyclo[7.4.0.0^2,7]trideca-1(9),4,6,10,12-pentaen-3-one], the Kd in test [1] worked out at 113 ± 52 µM. For the same compound, the IC50 in test [2] worked out at 0.055 ± 0.008 µM.

Take `COc1ccc(/C=N/Nc2nc(-c3c(O)c(C)c(O)c4c3OC3=CC(O)=C(C(C)=O)C(=O)[C@@]34C)cs2)cc1COc1ccc(Cl)c(C)c1` [(+)-17h, (2R)-4-Acetyl-10-{2-[(E)-2-({3-[(4-chloro-3-methylphenoxy)methyl]-4-methoxyphenyl}methylidene)hydrazin-1-yl]-1,3-thiazol-4-yl}-5,11,13-trihydroxy-2,12-dimethyl-8-oxatricyclo[7.4.0.0^2,7]trideca-1(9),4,6,10,12-pentaen-3-one]: in test [1], the Kd amounted to 188 ± 22 µM. In test [2], this compound had an IC50 of 0.074 ± 0.001 µM.

As for “(2S)-4-Acetyl-10-{2-[(E)-2-({3-[(3,4-difluorophenoxy)methyl]-4-methoxyphenyl}methylidene)hydrazin-1-yl]-1,3-thiazol-4-yl}-5,11,13-trihydroxy-2,12-dimethyl-8-oxatricyclo[7.4.0.0^2,7]trideca-1(9),4,6,10,12-pentaen-3-one [(−)-17e]”, the Kd in test [1] amounted to 130 ± 8 µM. Further, in test [2], the IC50 came to 0.03 ± 0.011 µM.

Consider `COc1ccc(/C=N/Nc2nc(-c3c(O)c(C)c(O)c4c3OC3=CC(O)=C(C(C)=O)C(=O)[C@]34C)cs2)cc1COc1ccccc1F` [(−)-17c, (2S)-4-Acetyl-10-{2-[(E)-2-({3-[(2-fluorophenoxy)methyl]-4-methoxyphenyl}methylidene)hydrazin-1-yl]-1,3-thiazol-4-yl}-5,11,13-trihydroxy-2,12-dimethyl-8-oxatricyclo[7.4.0.0^2,7]trideca-1(9),4,6,10,12-pentaen-3-one], for which, in test [1], the Kd was 74 ± 4 µM. Besides, it took 0.037 ± 0.01 µM to reach half-maximal inhibition in test [2] (IC50).

With `COc1ccc(/C=N/Nc2nc(-c3c(O)c(C)c(O)c4c3OC3=CC(O)=C(C(C)=O)C(=O)[C@@]34C)cs2)cc1COc1ccc(F)cc1` [(+)-17a, (2R)-4-Acetyl-10-{2-[(E)-2-({3-[(4-fluorophenoxy)methyl]-4-methoxyphenyl}methylidene)hydrazin-1-yl]-1,3-thiazol-4-yl}-5,11,13-trihydroxy-2,12-dimethyl-8-oxatricyclo[7.4.0.0^2,7]trideca-1(9),4,6,10,12-pentaen-3-one], in test [1], the Kd was determined as 212 ± 25 µM. The compound further showed an IC50 in test [2] of 0.026 ± 0.008 µM.

On to `CC(=O)C1=C(O)C=C2Oc3c(-c4csc(N/N=C/c5ccc([N+](=O)[O-])s5)n4)c(O)c(C)c(O)c3[C@@]2(C)C1=O` [(+)-16d, (2R)-4-Acetyl-5,11,13-trihydroxy-2,12-dimethyl-10-{2-[(E)-2-[(5-nitrothiophen-2-yl)methylidene]hydrazin-1-yl]-1,3-thiazol-4-yl}-8-oxatricyclo[7.4.0.0^2,7]trideca-1(9),4,6,10,12-pentaen-3-one], for which the dissociation constant (Kd) in test [1] is 597 ± 98 µM. Also, half-maximal inhibition in test [2] (IC50) was put at 0.07 ± 0.004 µM.

For the compound `CC(=O)C1=C(O)C=C2Oc3c(-c4csc(N/N=C/c5cc(Br)cs5)n4)c(O)c(C)c(O)c3[C@]2(C)C1=O` [(−)-16h, (2S)-4-Acetyl-5,11,13-trihydroxy-2,12-dimethyl-10-{2-[(E)-2-[(4-bromothiophen-2-yl)methylidene]hydrazin-1-yl]-1,3-thiazol-4-yl}-8-oxatricyclo[7.4.0.0^2,7]trideca-1(9),4,6,10,12-pentaen-3-one], the Kd in test [1] is 355 ± 50 µM. This compound also returned an IC50 in test [2] of 0.056 ± 0.004 µM.

For `CC(=O)C1=C(O)C=C2Oc3c(-c4csc(N/N=C/c5ccoc5)n4)c(O)c(C)c(O)c3[C@]2(C)C1=O` [(−)-16l, (2S)-4-Acetyl-5,11,13-trihydroxy-2,12-dimethyl-10-{2-[(E)-2-[(furan-3-yl)methylidene] hydrazin-1-yl]-1,3-thiazol-4-yl}-8-oxatricyclo[7.4.0.0^2,7]trideca-1(9),4,6,10,12-pentaen-3-one], the Kd in test [1] came out at 233 ± 9 µM. Also, the IC50 in test [2] turned out to be 0.178 ± 0.004 µM.

With `CC(=O)C1=C(O)C=C2Oc3c(-c4csc(N/N=C/c5cnc[nH]5)n4)c(O)c(C)c(O)c3[C@@]2(C)C1=O` [(+)-16o, 5-[(1E)-(2-{4-[(1R)-12-Acetyl-3,5,11-trihydroxy-1,4-dimethyl-13-oxo-8-oxatricyclo[7.4.0.0^2,7]trideca-2(7),3,5,9,11-pentaen-6-yl]-1,3-thiazol-2-yl}hydrazin-1-ylidene)methyl]-1H-imidazol-1-ium bromide], the dissociation constant (Kd) in test [1] was found to be 38 ± 2 µM. Moreover, the IC50 in test [2] stood at 1.69 ± 0.89 µM.

In the case of “(2R)-4-Acetyl-10-{2-[(E)-2-({3-[(3,4-difluorophenoxy)methyl]-4-methoxyphenyl}methylidene)hydrazin-1-yl]-1,3-thiazol-4-yl}-5,11,13-trihydroxy-2,12-dimethyl-8-oxatricyclo[7.4.0.0^2,7]trideca-1(9),4,6,10,12-pentaen-3-one [(+)-17e]”, the Kd in test [1] was determined as 213 ± 4 µM. The compound also displayed an IC50 in test [2] of 0.064 ± 0.006 µM.

In the case of `CC(=O)C1=C(O)C=C2Oc3c(-c4csc(N/N=C/c5ccc(-c6cccc(Cl)c6)o5)n4)c(O)c(C)c(O)c3[C@]2(C)C1=O` [(−)-16r, (2S)-4-Acetyl-10-{2-[(E)-2-{[5-(3-chlorophenyl)furan-2-yl]methylidene}hydrazin-1-yl]-1,3-thiazol-4-yl}-5,11,13-trihydroxy-2,12-dimethyl-8-oxatricyclo[7.4.0.0^2,7]trideca-1(9),4,6,10,12-pentaen-3-one], the IC50 in test [2] worked out at 0.053 ± 0.003 µM.

With `COc1ccc(/C=N/Nc2nc(-c3c(O)c(C)c(O)c4c3OC3=CC(O)=C(C(C)=O)C(=O)[C@]34C)cs2)cc1COc1ccc(Cl)c(C)c1` [(−)-17h, (2S)-4-Acetyl-10-{2-[(E)-2-({3-[(4-chloro-3-methylphenoxy)methyl]-4-methoxyphenyl}methylidene)hydrazin-1-yl]-1,3-thiazol-4-yl}-5,11,13-trihydroxy-2,12-dimethyl-8-oxatricyclo[7.4.0.0^2,7]trideca-1(9),4,6,10,12-pentaen-3-one], in test [2], 0.048 ± 0.002 µM corresponded to half-maximal inhibition (IC50).

For the compound `CC(=O)C1=C(O)C=C2Oc3c(-c4csc(N/N=C/c5ccc(C)s5)n4)c(O)c(C)c(O)c3[C@@]2(C)C1=O` [(+)-16e, (2R)-4-Acetyl-5,11,13-trihydroxy-2,12-dimethyl-10-{2-[(E)-2-[(5-methylthiophen-2-yl)methylidene]hydrazin-1-yl]-1,3-thiazol-4-yl}-8-oxatricyclo[7.4.0.0^2,7]trideca-1(9),4,6,10,12-pentaen-3-one], in test [2], half-maximal inhibition (IC50) was put at 0.091 ± 0.007 µM.

In general, Kd refers to the free concentration of one partner at which half of the binding sites on the other are occupied at equilibrium, for simple one-to-one binding. The IC50 is the concentration that inhibits the measured activity by half.
